Measurements as given in US20050048108A1, “Sulphur-containing amphiphilic agents for the transfer of biologically active molecules into cells” (G.O.T. Therapeutics GMBH, priority 2000, published 2005).

System: HeLa (human cervical carcinoma), F98 (rat glioblastoma), IMR90 (human embryonic lung) cell lines
Assay: Transfection of adherent cell lines with pUT 651 plasmid (lacZ / β-galactosidase reporter)
Format: cell-based
Settings: all investigated cell lines, versus Lipofectin, LipofectAMINE, DOTAP and DAC-30
Description: The gene transfer properties of the lipids according to the invention (lipid 9 (Sulfectin A) and lipid 10 (Sulfectin B)) were tested on various cell lines and were compared with the reagents known heretofore (FIGS. 3, 4 and 5). A plasmid coded for β-galactosidase was used as the reporter system. In the trials, the lipids were also mixed with, among other things, the neutral auxiliary lipid 1,2-dioleoyl-sn-glycero-3-phosphoethanolamine (DOPE). […] Among others a β-galactosidase expression up to 10 times higher was found. This is the more surprising in that in most cases (IMR90 and F98 cells) no admixture of an a helper lipid was necessary. With all the commercial lipids, on the other hand, a portion of DOPE was indispensable for an efficient gene transfer. The high gene transfer efficiency of the pure lipid is also advantageous for the production of the gene transfer reagent, since the formulation step of the cationic lipid and auxiliary lipid is omitted. […]
After a transfection time of 24 h, the medium is changed and the cells are incubated for a further 48 h. […] The lysate is treated with chlorophenol red β-galactopyranoside (Roche Diagnostics, 1 mg/ml in HBSS) as a substrate for β-galactosidase, and the optical density at different intervals is determined with a microplate reader (Dynex) (measurement wavelength 540 nm, reference wavelength 630 nm).

| SMILES | gene transfer (transfection) efficiency compared with the known lipids |
| --- | --- |
| CCCCCCCC/C=C\CCCCCCCC(=O)OCC(CCS(=O)(=O)CCCN)OC(=O)CCCCCCC/C=C\CCCCCCCC.O=C(O)C(F)(F)F (centres unmarked) [lipid 9, 3-[(3,4-dioleoyloxybutyl)-sulfonyl]propyl-1-ammonium trifluoroacetate] | markedly higher efficiency |
| CCCCCCCC/C=C\CCCCCCCC(=O)OCC(CC[S+]([O-])CCCN)OC(=O)CCCCCCC/C=C\CCCCCCCC.O=C(O)C(F)(F)F (centres unmarked) [lipid 10, 3-[(3,4-dioleoyloxybutyl)-sulfinyl]propyl-1-ammonium trifluoroacetate] | markedly higher efficiency |
